Data on 17 compounds can be found in patent US11976083B2, “Inhibitors of peptidylarginine deiminases” (Gilead Sciences, Inc., priority 2020, dated 2024).

The target of the experiment is T1, human PAD4 (Homo sapiens, UniProt Q9UM07).
T1 construct: human PAD4 (NM_012387), A2-P663, was PCR amplified; His-SUMO (N, cleaved yes); made in house; host or cells: E. coli BL21(DE3)
The experiment can be described thus: In vitro PAD4 BAEE biochemical assay. The settings on record: BAEE substrate 3 mM, 5 nM PAD4, 2 mM calcium chloride; geometric mean of multiple experiments. In a few lines:
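Recombinant PAD4 (5 nM final) with 2 mM CaCl2 was preincubated with compound for 30 min at 25 °C in MOPS pH 7.6 buffer with DTT, then reacted with 3 mM BAEE for 2 h at 25 °C. Released ammonia was detected fluorimetrically with o-phthalaldehyde/DTT; IC50 from four-parameter fit, geometric mean of experiments.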

Each structure is given as a SMILES string.

T1 sequence (Q9UM07 2-663): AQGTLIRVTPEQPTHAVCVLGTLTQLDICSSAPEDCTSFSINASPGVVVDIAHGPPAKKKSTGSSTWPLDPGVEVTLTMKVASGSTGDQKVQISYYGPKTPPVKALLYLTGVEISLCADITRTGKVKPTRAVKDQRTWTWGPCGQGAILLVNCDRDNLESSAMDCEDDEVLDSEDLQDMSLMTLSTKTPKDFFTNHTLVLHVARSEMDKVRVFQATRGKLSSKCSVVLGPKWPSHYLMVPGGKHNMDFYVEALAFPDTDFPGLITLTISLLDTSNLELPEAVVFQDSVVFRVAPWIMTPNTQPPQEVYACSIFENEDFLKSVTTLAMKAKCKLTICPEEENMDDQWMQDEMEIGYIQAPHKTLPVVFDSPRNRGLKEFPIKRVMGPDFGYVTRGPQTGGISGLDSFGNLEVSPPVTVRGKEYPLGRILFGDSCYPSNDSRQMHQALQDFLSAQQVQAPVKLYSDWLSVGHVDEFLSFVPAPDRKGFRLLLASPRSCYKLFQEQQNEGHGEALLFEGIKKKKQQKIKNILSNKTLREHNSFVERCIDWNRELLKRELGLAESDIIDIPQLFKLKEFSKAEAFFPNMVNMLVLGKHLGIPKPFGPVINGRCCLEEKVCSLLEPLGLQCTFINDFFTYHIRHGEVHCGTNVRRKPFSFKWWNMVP

`COc1cc(C(=O)N2CCC[C@@H](N)C2)cc2nc(-c3cc4ccc5nc4n3C[C@H]3C[C@@H]3[C@@H](C)OCCC(=O)N[C@@H]5C)n(C)c12` [Example 162, (3~{S),5~{S},6~{R},12~{R})-18-[5-[(3~{R})-3-aminopiperidine-1-carbonyl]-7-methoxy-1-methyl-benzimidazol-2-yl]-6,12-dimethyl-7-oxa-1,11,20-triazatetracyclo[11.5.2.0^{3,5}.0^{16,19}] icosa-13(20),14,16(19),17-tetraen-10-one]: the half-maximal inhibitory concentration (IC50) came out at 55 nM. For `COc1cc(C(=O)N2CC[C@@H](OC(F)F)[C@@H](N)C2)cc2nc(-c3cc4ccc5nc4n3CCCCCCC3(COC3)C(=O)N[C@@H]5C)n(C)c12` [Example 613, (11~{R})-17-[5-[(3~{S},4~{R})-3-amino-4-(difluoromethoxy)piperidine-1-carbonyl]-7-methoxy-1-methyl-benzimidazol-2-yl]-11-methyl-spiro[1,10,19-triazatricyclo[10.5.2.0^ {15,18}]nonadeca-12,14,16,18-tetraene-8,3′-oxetane]-9-one], the IC50 turned out to be 108 nM. Under `COc1cc(C(=O)N2[C@H]3CC[C@@H]2[C@H](N)C3)cc2nc(-c3cc4ccc5nc4n3CCCCCC[C@@H]3CCN(C3=O)[C@@H]5C)n(C)c12` [Example 138, (2˜{R},6˜{R})-14-[5-[(1˜{R},2˜{R},4˜{S})-2-amino-7-azabicyclo[2.2.1]heptane-7-carbonyl]-7-methoxy-1-methyl-benzimidazol-2-yl]-2-methyl-3,13,19-triazatetracyclo[11.5.2.1^{3,6}.0^{16,20}]henicosa-1(19),14,16(20),17-tetraen-21-one] stands 18 nM; under `COc1cc(C(=O)N2C[C@H](N)[C@@H]3CC[C@H]2C3)cc2nc(-c3cc4ccc5nc4n3CCCCCCC3(CC3)C(=O)N[C@@H]5C)n(C)c12` [Example 445, (11~{R})-17-[5-[(1~{S},4~{R},5~{R})-4-amino-2-azabicyclo[3.2.1]octane-2-carbonyl]-7-methoxy-1-methyl-benzimidazol-2-yl]-11-methyl-spiro[1,10,19-triazatricyclo[10.5.2.0^{15,18}]nonadeca-12(19),13,15(18),16-tetraene-8,1′-cyclopropane]-9-one], 72 nM. The value for `[2H]C1([2H])CCCC[C@@H]2C[C@H]2C(=O)N[C@H](C)c2ccc3cc(-c4nc5cc(C(=O)N6C[C@H](N)[C@@H]7CC[C@H]6C7)cc(F)c5n4C4CC4)n1c3n2` [Example 482, (2~{R},5~{R},7~{R})-14-[5-[(1~{S},4~{R},5~{R})-4-amino-2-azabicyclo[3.2.1]octane-2-carbonyl]-1-cyclopropyl-7-fluoro-benzimidazol-2-yl]-12,12-dideuterio-2-methyl-3,13,19-triazatetracyclo[11.5.2.0^{5,7}.0^{16,20}] icosa-1(19),14,16(20),17-tetraen-4-one] was 26 nM. Under `COc1cc(C(=O)N2[C@H]3CC[C@@H]2[C@H](N)C3)cc2nc(-c3cc4ccc5nc4n3C[C@@H]3C[C@H]3COCCC(=O)N[C@@H]5C)n(C)c12` [Example 218, (3~{R},5~{R},12~{R})-18-[5-[(1~{R},2~{R},4~{S})-2-amino-7-azabicyclo[2.2.1]heptane-7-carbonyl]-7-methoxy-1-methyl-benzimidazol-2-yl]-12-methyl-7-oxa-1,11,20-triazatetracyclo[11.5.2.0^{3,5}.0^{16,19}] icosa-13(20),14,16(19),17-tetraen-10-one] stands 29 nM. Consider `COC1CC1n1c(-c2cc3ccc4nc3n2CCCCC[C@@H]2C[C@H]2C(=O)N[C@@H]4C)nc2cc(C(=O)N[C@H]3CNCC[C@@H]3F)c(F)cc21` (some centres unmarked) [Example 607, 6-fluoro-~{N}-[(3~{S),4~ {S})-4-fluoro-3-piperidyl]-1-(2-methoxycyclopropyl)-2-[(2~{R},5~{R},7~{R})-2-methyl-4-oxo-3,13,19-triazatetracyclo[11.5.2.0^ {5,7}.0^{16,20}]icosa-1(18),14,16,19-tetraen-14-yl]benzimidazole-5-carboxamide], for which the IC50 turned out to be 51 nM. Under `CO[C@@H]1CCN(C(=O)c2cc(F)c3c(c2)nc(-c2cc4ccc5nc4n2CCCCCC2C[C@H]2C(=O)N[C@@H]5C)n3C2CC2)C[C@@H]1N` (some centres unmarked) [Example 579, (2~{R},5~{R},7~{R})-14-[5-[(3~{S),4~{R})-3-amino-4-methoxy-piperidine-1-carbonyl]-1-cyclopropyl-7-fluoro-benzimidazol-2-yl]-2-methyl-3,13,19-triazatetracyclo [11.5.2.0^{5,7}.0^{16,20}] icosa-1(19),14,16(20), 17-tetraen-4-one] stands 50 nM; under `[2H]C1([2H])[C@H](N)[C@@H]2CC[C@@H](C2)N1C(=O)c1cc(F)c2c(c1)nc(-c1cc3ccc4nc3n1CCCCCc1nc(Cl)ccc1C(=O)N[C@@H]4C)n2C1CC1` [Example 764, (2~{R})-17-[5-[(1~{S},4~{R}, 5~{R})-4-amino-3,3-dideuterio-2-azabicyclo[3.2.1]octane-2-carbonyl]-1-cyclopropyl-7-fluoro-benzimidazol-2-yl]-8-chloro-2-methyl-3,9,16,22-tetrazatetracyclo[14.5.2.0^ {5,10).0^{19,23}]tricosa-1(22),5(10),6,8,17,19(23),20-heptaen-4-one], 22 nM. The value for `COc1cc(C(=O)N2CCC[C@@H](N)C2)cc2nc(-c3cc4ccc5nc4n3CCCCCCCC(=O)N(C)C5)n(C)c12` [Example 234, 17-[5-[(3˜{R})-3-aminopiperidine-1-carbonyl]-7-methoxy-1-methyl-benzimidazol-2-yl]-10-methyl-1,10,19-triazatricyclo[10.5.2.0^{15,18}]nonadeca-12(19),13,15(18),16-tetraen-9-one] was 622 nM; that for `COc1cc(C(=O)N2[C@H]3CC[C@@H]2[C@H](N)C3)cc2nc(-c3cc4ccc5nc4n3CC3(CCCCCC(=O)N[C@@H]5C)CC3)n(C)c12` [Example 139, (11~{R})-17-[5-[(1~{R},2~{R},4~{S})-2-amino-7-azabicyclo[2.2.1]heptane-7-carbonyl]-7-methoxy-1-methyl-benzimidazol-2-yl]-11-methyl-spiro[1,10,19-triazatricyclo[10.5.2.0^{15,18}]nonadeca-12(19),13,15(18),16-tetraene-3,1′-cyclopropane]-9-one] was 40 nM. The value for `COc1cc(C(=O)N2CCC[C@@H](N)C2)cc2nc(-c3cc4ccc5nc4n3CCCCCCCC(=O)N[C@@H]5C)c(C)n12` [Example 301, (11~{R})-17-[7-[(3~{R})-3-aminopiperidine-1-carbonyl]-5-methoxy-3-methyl-imidazo[1,2-a]pyridin-2-yl]-11-methyl-1,10,19-triazatricyclo[10.5.2.0^{15,18}]nonadeca-12(19),13,15(18),16-tetraen-9-one] was 36 nM; that for `C[C@H]1NC(=O)c2ccc(Cl)nc2CCCCCn2c(-c3nc4cc(C(=O)N5C[C@H](N)[C@@H]6CC[C@H]5C6)cc(F)c4n3CC(F)F)cc3ccc1nc32` [Example 925, (2~{R})-17-[5-[(1~{S),4~{R},5~ {R})-4-amino-2-azabicyclo[3.2.1]octane-2-carbonyl]-1-(2,2-difluoroethyl)-7-fluoro-benzimidazol-2-yl]-8-chloro-2-methyl-3,9,16,22-tetrazatetracyclo[14.5.2.0^ {5,10}.0^{19,23}]tricosa-1(22),5(10),6,8,17,19(23),20-heptaen-4-one] was 40 nM.

Take `C[C@H]1NC(=O)c2ccc(C(F)F)nc2CCCCCn2c(-c3nc4cc(C(=O)N5C[C@H](N)[C@@H]6CC[C@H]5C6)cc(F)c4n3C3CC3)cc3ccc1nc32` [Example 843, (2~{R})-17-[5-[(1~{S},4~ {R},5~{R})-4-amino-2-azabicyclo[3.2.1]octane-2-carbonyl]-1-cyclopropyl-7-fluoro-benzimidazol-2-yl]-8-(difluoromethyl)-2-methyl-3,9,16,22-tetrazatetracyclo [14.5.2.0^{5,10}.0^{19,23}] tricosa-1(22),5(10),6,8,17, 19(23),20-heptaen-4-one]: the IC50 was found to be 18 nM. Consider `COCCn1c(-c2cc3ccc4nc3n2CCCCC[C@@H]2C[C@H]2C(=O)N[C@@H]4C)nc2cc(C(=O)N3CC[C@@H](OC)[C@@H](N)C3)cc(F)c21` [Example 436, (2~{R},5~{R},7~{R})-14-[5-[(3~{S},4~{R})-3-amino-4-methoxy-piperidine-1-carbonyl]-7-fluoro-1-(2-methoxyethyl)benzimidazol-2-yl]-2-methyl-3,13,19-triazatetracyclo[11.5.2.0^{5,7}.0^{16,20}] icosa-1(19),14,16(20),17-tetraen-4-one], for which the IC50 turned out to be 93 nM. In the case of `COc1cc(C(=O)N2C[C@H]3CC[C@@H]2[C@@H]3N)cc2nc(-c3cc4ccc5nc4n3CCCCCCCCC(=O)N[C@@H]5C)n(C)c12` [Example 289, (12~{R})-18-[5-[(1~{R},4~{R},7~{R})-7-amino-2-azabicyclo[2.2.1]heptane-2-carbonyl]-7-methoxy-1-methyl-benzimidazol-2-yl]-12-methyl-1,11,20-triazatricyclo[11.5.2.0^{16,19}]icosa-13(20),14,16(19),17-tetraen-10-one], the 50% inhibitory concentration (IC50) worked out at 25 nM. With `COc1cc(C(=O)N[C@H]2CNCC[C@@H]2F)cc2nc(-c3cc4ccc5nc4n3C[C@@H]3C[C@H]3CCc3ccccc3C(=O)N[C@@H]5C)n(C)c12` [Example 346, ~{N}-[(3~{S),4~{S})-4-fluoro-3-piperidyl]-7-methoxy-1-methyl-2-[(3~{R},5~{R},16~{R})-16-methyl-14-oxo-1,15,24-triazapentacyclo[15.5.2.0^{3,5}.0^{8,13}.0^ {20,23}]tetracosa-8,10,12,17(24),18,20(23),21-heptaen-22-yl]benzimidazole-5-carboxamide], the IC50 is 97 nM.
